The results in this text go back to patent US11180474B2 (BRISTOL-MYERS SQUIBB COMPANY, priority 2016, dated 2021).

In test [1] the target is T1, human TLR7 (Homo sapiens, UniProt Q9NYK1).
T1 construct: host or cells: HEK-Blue cells
T1 sequence (Q9NYK1 27-1049): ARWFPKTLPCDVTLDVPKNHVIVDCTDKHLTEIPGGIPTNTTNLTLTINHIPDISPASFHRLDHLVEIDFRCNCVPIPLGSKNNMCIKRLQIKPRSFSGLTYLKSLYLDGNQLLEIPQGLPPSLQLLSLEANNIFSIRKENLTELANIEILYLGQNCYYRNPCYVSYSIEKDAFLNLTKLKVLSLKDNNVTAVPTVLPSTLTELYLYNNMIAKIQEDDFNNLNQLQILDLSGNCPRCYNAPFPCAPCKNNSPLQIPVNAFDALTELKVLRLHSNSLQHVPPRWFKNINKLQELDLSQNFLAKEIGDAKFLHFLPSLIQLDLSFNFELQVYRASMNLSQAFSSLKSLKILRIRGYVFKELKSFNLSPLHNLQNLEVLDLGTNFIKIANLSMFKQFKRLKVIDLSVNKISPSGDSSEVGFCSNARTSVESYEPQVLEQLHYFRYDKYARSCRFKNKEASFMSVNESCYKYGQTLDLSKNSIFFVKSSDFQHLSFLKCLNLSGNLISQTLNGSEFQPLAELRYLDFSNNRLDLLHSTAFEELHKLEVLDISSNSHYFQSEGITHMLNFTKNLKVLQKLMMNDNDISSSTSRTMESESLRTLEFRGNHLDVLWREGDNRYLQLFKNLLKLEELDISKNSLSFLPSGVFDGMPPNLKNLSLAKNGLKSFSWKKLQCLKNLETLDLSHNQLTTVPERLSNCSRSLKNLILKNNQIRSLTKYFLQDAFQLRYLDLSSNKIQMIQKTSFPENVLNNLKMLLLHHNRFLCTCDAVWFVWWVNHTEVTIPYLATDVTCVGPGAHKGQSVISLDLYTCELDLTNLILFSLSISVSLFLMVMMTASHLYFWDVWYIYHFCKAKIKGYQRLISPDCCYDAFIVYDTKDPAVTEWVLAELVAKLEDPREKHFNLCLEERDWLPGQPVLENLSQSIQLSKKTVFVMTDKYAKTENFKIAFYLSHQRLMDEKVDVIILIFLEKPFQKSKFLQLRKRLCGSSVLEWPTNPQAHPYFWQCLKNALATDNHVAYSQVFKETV
Nature of the test: TLR7 inhibition reporter assay (HEK-Blue cells, SEAP reporter, gardiquimod stimulation). It is filed as cell-based. Conditions: HEK-Blue cells overexpressing human TLR7, gardiquimod 7.5 μM. A digest of the protocol:
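22 h, 37° C, 5% CO2 incubation; compounds 0.05 nM-50 μM final; TLR7 cells 15000/well, TLR8 20,000/well. Readout: SEAP via HEK-Blue Detection medium. % inhibition = signal reduction versus agonist + DMSO wells, referenced to known inhibitor.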
A general note: A reporter such as luciferase makes a cellular process visible.

Test [2] deals with T2, human TLR9 (Homo sapiens, UniProt Q9NR96).
T2 construct: host or cells: HEK-Blue cells
T2 sequence (Q9NR96 26-1032): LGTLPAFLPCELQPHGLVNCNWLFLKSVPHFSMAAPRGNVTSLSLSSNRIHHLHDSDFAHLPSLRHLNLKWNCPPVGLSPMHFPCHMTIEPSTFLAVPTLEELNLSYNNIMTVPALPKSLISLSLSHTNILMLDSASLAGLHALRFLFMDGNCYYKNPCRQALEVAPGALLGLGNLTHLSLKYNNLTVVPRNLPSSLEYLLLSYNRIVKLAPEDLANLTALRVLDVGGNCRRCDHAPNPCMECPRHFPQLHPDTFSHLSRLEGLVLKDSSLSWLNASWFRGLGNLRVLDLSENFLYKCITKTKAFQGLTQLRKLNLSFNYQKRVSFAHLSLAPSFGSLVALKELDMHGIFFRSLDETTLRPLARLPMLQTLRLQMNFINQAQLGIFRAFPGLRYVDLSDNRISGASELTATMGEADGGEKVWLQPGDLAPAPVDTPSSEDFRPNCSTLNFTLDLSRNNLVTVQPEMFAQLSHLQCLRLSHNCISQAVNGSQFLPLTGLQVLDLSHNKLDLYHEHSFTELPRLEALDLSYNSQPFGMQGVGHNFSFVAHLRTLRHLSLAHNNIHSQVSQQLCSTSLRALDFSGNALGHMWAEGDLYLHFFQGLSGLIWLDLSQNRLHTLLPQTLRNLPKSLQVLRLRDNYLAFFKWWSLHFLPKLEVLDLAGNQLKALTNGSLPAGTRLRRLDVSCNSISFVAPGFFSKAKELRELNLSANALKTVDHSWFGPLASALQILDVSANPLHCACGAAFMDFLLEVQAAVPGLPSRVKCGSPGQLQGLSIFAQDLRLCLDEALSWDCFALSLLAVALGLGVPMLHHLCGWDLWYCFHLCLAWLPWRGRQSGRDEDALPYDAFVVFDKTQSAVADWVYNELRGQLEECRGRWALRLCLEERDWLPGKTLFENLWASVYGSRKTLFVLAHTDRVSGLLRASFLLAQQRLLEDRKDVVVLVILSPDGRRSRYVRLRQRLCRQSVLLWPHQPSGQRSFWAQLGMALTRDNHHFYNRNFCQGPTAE
Description: TLR9 inhibition reporter assay (HEK-Blue cells, SEAP reporter, ODN2006 stimulation). Type of test: cell-based. Conditions: HEK-Blue cells overexpressing human TLR9, ODN2006 5 nM. A digest of the protocol:
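Compound treatment: 30 min, RT, 0.05 nM–50 μM final. Agonist: TLR7 gardiquimod 7.5 μM; TLR8 R848 15.9 μM; TLR9 ODN2006 5 nM. Incubation 22 h, 37 °C, 5% CO2. Readout SEAP, HEK-Blue Detection.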

Structures are written as SMILES.

As a reminder, the IC50 is the concentration at which inhibition is half-maximal. Consider `COc1ccc(-c2[nH]c3ccc(C4CCN(C5CCN(C6CCC(C)CC6)CC5)CC4)cc3c2C)cc1OC` (centres unmarked) [Example 80, 2-(3,4-dimethoxyphenyl)-3-methyl-5-(1′-(4-methylcyclohexyl)-[1,4′-bipiperidin]-4-yl)-1H-indole], for which the IC50 in test [1] was determined as 433 nM; in test [2], 80 nM.

In the case of `COc1ccc(-c2[nH]c3ccc(C4CCN(C5CCN(Cc6cncn6C)CC5)CC4)cc3c2C)cc1OC` [Example 59, 2-(3,4-dimethoxyphenyl)-3-methyl-5-(1′-((1-methyl-1H-imidazol-5-yl)methyl)-[1,4′-bipiperidin]-4-yl)-1H-indole], the IC50 came out at 477 nM in test [1] and 180 nM in test [2].

In the case of `COc1ccc(-c2[nH]c3ccc(C4CCN(C5CCCN(CC(C)C)CC5)CC4)cc3c2C)cc1OC` (centres unmarked) [Example 95, 2-(3,4-dimethoxyphenyl)-5-(1-(1-isobutylazepan-4-yl)piperidin-4-yl)-3-methyl-1H-indole], the results for the IC50 in test [1] and in test [2] were 819 nM and 115 nM, respectively.

In the case of `COc1ccc(-c2[nH]c3ccc(C4CCN(C5CCN(C6CCCCC6)CC5)CC4)cc3c2C)cc1OC` [Example 68, 5-(1′-cyclohexyl-[1,4′-bipiperidin]-4-yl)-2-(3,4-dimethoxyphenyl)-3-methyl-1H-indole], the IC50 in test [1] was found to be 288 nM; in test [2] it was 88 nM.

In the case of `COc1ccc(-c2[nH]c3ccc(C4CCN(C5CCN(Cc6ccco6)CC5)CC4)cc3c2C)cc1OC` [Example 76, 2-(3,4-dimethoxyphenyl)-5-(1′-(furan-2-ylmethyl)-[1,4′-bipiperidin]-4-yl)-3-methyl-1H-indole], the values for the concentration for half-maximal inhibition (IC50) in test [1] and in test [2] were 147 nM and 172 nM, respectively.

Consider `COc1ccc(-c2[nH]c3ccc(C4CCN(C5CCCN(CC6CC6)CC5)CC4)cc3c2C)cc1OC` (centres unmarked) [Example 94, 5-(1-(1-(cyclopropylmethyl)azepan-4-yl)piperidin-4-yl)-2-(3,4-dimethoxyphenyl)-3-methyl-1H-indole], for which the IC50 in test [1] came out at 1770 nM; in test [2] it was 195 nM.

For `COc1ccc(-c2[nH]c3ccc(C4CCN(CC5CCCCN5C)CC4)cc3c2C)cc1OC` (centres unmarked) [Example 49, 2-(3,4-dimethoxyphenyl)-3-methyl-5-(1-((1-methylpiperidin-2-yl)methyl)piperidin-4-yl)-1H-indole], the concentration for half-maximal inhibition (IC50) is 1360 nM in test [1] and 550 nM in test [2].

Turning to `CCCCCN1CCC(N2CCC(c3ccc4[nH]c(-c5ccc(OC)c(OC)c5)c(C)c4c3)CC2)CC1` [Example 55, 2-(3,4-dimethoxyphenyl)-3-methyl-5-(1′-pentyl-[1,4′-bipiperidin]-4-yl)-1H-indole], the IC50 in test [1] came out at 86 nM; in test [2], 72 nM.

Take `COc1ccc(-c2[nH]c3ccc(C4CCN(C(C)CO)CC4)cc3c2C)cc1OC` (centres unmarked) [Example 43, 2-(4-(2-(3,4-dimethoxyphenyl)-3-methyl-1H-indol-5-yl)piperidin-1-yl)propan-1-ol]: the half-maximal inhibitory concentration (IC50) was determined as 1160 nM in test [1] and 2760 nM in test [2].

With `COc1ccc(-c2[nH]c3ccc(C4CCN(C(=O)CN5CCCC(C(=O)N(C)C)C5)CC4)cc3c2CC(F)(F)F)cc1OC` (centres unmarked) [Example 419, 1-(2-(4-(2-(3,4-dimethoxyphenyl)-3-(2,2,2-trifluoroethyl)-1H-indol-5-yl)piperidin-1-yl)-2-oxoethyl)-N,N-dimethylpiperidine-3-carboxamide], the half-maximal inhibitory concentration (IC50) in test [1] was determined as 31 nM; in test [2], 2950 nM.

In the case of `CCN(CC)C(=O)C1CCCN(CC(=O)N2CCC(c3ccc4[nH]c(-c5ccc(OC)c(OC)c5)c(CC(F)(F)F)c4c3)CC2)C1` (centres unmarked) [Example 420, 1-(2-(4-(2-(3,4-dimethoxyphenyl)-3-(2,2,2-trifluoroethyl)-1H-indol-5-yl)piperidin-1-yl)-2-oxoethyl)-N,N-diethylpiperidine-3-carboxamide], the IC50 was found to be 66 nM in test [1] and 279 nM in test [2].

Regarding `COc1ccc(-c2[nH]c3ccc(C4CCN(C(=O)CN(C)CCO)CC4)cc3c2C)cc1OC` [Example 408, 1-(4-(2-(3,4-dimethoxyphenyl)-3-methyl-1H-indol-5-yl)piperidin-1-yl)-2-((2-hydroxyethyl)(methyl)amino)ethan-1-one], the IC50 is 898 nM in test [1] and 2000 nM in test [2].

As for `COc1ccc(-c2[nH]c3ccc(C4CCN(C5CCN(CC(C)(C)CO)CC5)CC4)cc3c2C)cc1OC` [Example 69, 3-(4-(2-(3,4-dimethoxyphenyl)-3-methyl-1H-indol-5-yl)-[1,4′-bipiperidin]-1′-yl)-2,2-dimethylpropan-1-ol], the IC50 in test [1] was 238 nM; in test [2], 174 nM.

On to `COc1ccc(-c2[nH]c3ccc(C4CCN(C5CCN(CC6CC6)CC5)CC4)cc3c2C)cc1OC` [Example 3, 5-(1′-(cyclopropylmethyl)-[1,4′-bipiperidin]-4-yl)-2-(3,4-dimethoxyphenyl)-3-methyl-1H-indole], for which the figures for the IC50 in test [1] and in test [2] were 339 nM and 117 nM, respectively.

In the case of `COc1ccc(-c2[nH]c3ccc(C4CCN(C5CCN(Cc6nccs6)CC5)CC4)cc3c2C)cc1OC` [Example 72, 2-((4-(2-(3,4-dimethoxyphenyl)-3-methyl-1H-indol-5-yl)-[1,4′-bipiperidin]-1′-yl)methyl)thiazole], the IC50 in test [1] came out at 563 nM; in test [2], 356 nM.

Turning to `COc1ccc(-c2[nH]c3ccc(C4CCN(C5CCN(CC6CCCC6)CC5)CC4)cc3c2C)cc1OC` [Example 65, 5-(1′-(cyclopentylmethyl)-[1,4′-bipiperidin]-4-yl)-2-(3,4-dimethoxyphenyl)-3-methyl-1H-indole], the IC50 in test [1] was found to be 24000 nM; in test [2], 112 nM.

Take `COc1ccc(-c2[nH]c3ccc(C4CCN(C5CCCN(C)CC5)CC4)cc3c2C)cc1OC` (centres unmarked) [Example 91, 2-(3,4-dimethoxyphenyl)-3-methyl-5-(1-(1-methylazepan-4-yl)piperidin-4-yl)-1H-indole]: the IC50 is 829 nM in test [1] and 313 nM in test [2].

On to `COc1ccc(-c2[nH]c3ccc(C4CCN(C(=O)CN5CCCN(C)CC5)CC4)cc3c2C)cc1OC` [Example 410, 1-(4-(2-(3,4-dimethoxyphenyl)-3-methyl-1H-indol-5-yl)piperidin-1-yl)-2-(4-methyl-1,4-diazepan-1-yl)ethan-1-one], for which the IC50 in test [1] stood at 3860 nM; in test [2], 5250 nM.

On to `COc1ccc(-c2[nH]c3ccc(C4CCN(C5CCN(C(C)C)CC5)CC4)cc3c2CC(F)(F)F)cc1OC` [Example 412, 2-(3,4-dimethoxyphenyl)-5-(1′-isopropyl-[1,4′-bipiperidin]-4-yl)-3-(2,2,2-trifluoroethyl)-1H-indole], for which the IC50 in test [1] amounted to 19 nM; in test [2], 247 nM.
